The IC50 is the concentration at which inhibition is half-maximal.

Results on 24 compounds are retold here after publication PMC2866477, “Anticancer Effect and Structure-Activity Analysis of Marine Products Isolated from Metabolites of Mangrove Fungi in the South China Sea” (Marine Drugs, 2010).

One experiment has as its system MCF-7/adr cells. The experiment can be described thus: MTT cytotoxicity assay, MCF-7/adr cells. Type of experiment: cell-based. The following applies: Homo sapiens, NCI/ADR-RES, 72 h treatment, doxorubicin-selected ABCB1-overexpressing MCF-7/adr cells. The method, then:
(§1) The cell lines were cultured in DMEM or RPMI 1640 containing 10% fetal bovine serum at 37 °C in the presence of 5% CO2. The cell lines were the oral epidermoid carcinoma cell lines KB and its vincristine-selected ABCB1-overexpressing KBv200 [10]; the breast carcinoma cell lines MCF-7 and its doxorubicin-selected ABCB1-overexpressing MCF-7/adr; the lung carcinoma cell line A549 and normal liver cell line LO2.
(§2) The MTT assay was used to evaluate the cytotoxicity of a number of compounds previously isolated from mangrove-derived fungi as described. Briefly, 3–4 × 10^3 cells were incubated in 96-well plates and allowed to attach overnight before compounds at full range concentrations were added. The concentrations were chosen so that the highest concentration killed most of the cells and the lowest killed none of the cells. After 72 h treatment, 0.5 mg/ml MTT was added to each well for an additional 4 h. Subsequently, the supernatant was removed, and the purple MTT-formazan crystals were dissolved by DMSO. Finally, absorbance was recorded at 540 nm with 655 nm as a reference filter using a Model 550 Microplate Reader (Bio-Rad, USA). Experiments were performed at least three times. The standard chemotherapeutic agent doxorubicin was used as a positive control in MTT assay and normal liver cell line LO2 was used to show whether cytotoxic activity was tumor-specific. The concentrations required to inhibit growth by 50% (IC50) were calculated from survival curves using the Bliss method.
On the technique in general: Tetrazolium dyes change colour on reduction, which living cells bring about.

The next experiment deals with MCF-7 cells. The experiment can be described thus: MTT cytotoxicity assay, MCF-7 cells. Type of experiment: cell-based. The settings on record: Homo sapiens, MCF7, 72 h treatment, MCF-7 breast carcinoma cells. On the procedure: as §1, §2
The test system of a further experiment is A549 cells. The experiment can be described thus: MTT cytotoxicity assay, A549 cells. The following applies: Homo sapiens, 72 h treatment, A549 lung carcinoma cells. Type of experiment: cell-based. The method, then:
as §1, §2

The subject of a further experiment is KBv200 cells. The experiment can be described thus: MTT cytotoxicity assay, KBv200 cells. Type of experiment: cell-based. The settings on record: Homo sapiens, 72 h treatment, vincristine-selected ABCB1-overexpressing KBv200 cells. The method, then:
as §1, §2

For another experiment, the system named is KB cells. The experiment can be described thus: MTT cytotoxicity assay, KB cells. In kind it is cell-based. The following applies: Homo sapiens, 72 h treatment, KB oral epidermoid carcinoma cells. On the procedure: as §1, §2
The test system of another experiment is normal liver LO2 cells. The experiment can be described thus: MTT cytotoxicity assay, normal liver LO2 cells. Type of experiment: cell-based. The following applies: Homo sapiens, L02, 72 h treatment, normal liver LO2 cells. The method, then: as §1, §2
Experiment [1] deals with KB, KBv200, MCF-7, MCF-7/adr, and A549 cells. The experiment can be described thus: MTT anticancer screen, cancer cell panel. Type of experiment: cell-based, human. The following applies: for IC50: Homo sapiens, MTT; for IC50 values in MDR cells compared with parental sensitive cells: KBv200, MCF-7/adr versus KB, MCF-7. On the procedure: as §1, §2
[2] abbreviates: KB, KBv200, MCF-7, MCF-7/adr, and A549 cells, read-out: IC50 values (potent cytotoxic activity).
[3] abbreviates: cancer cells, cell lines not given, read-out: IC50 (cytotoxic activity).

The structures appear in SMILES notation. Read-outs that look alike come from different tables or passages of the source.

With `Cc1ccc([N+](=O)[O-])cc1CO` [Compound 2], the IC50 with MCF-7/adr cells, in the experiment with MCF-7 cells, in the experiment with A549 cells, with KBv200 cells, in the experiment on KB cells and in the experiment with normal liver LO2 cells was more than 50 µM each time.
In the case of `Cc1c(CCl)cc([N+](=O)[O-])cc1CCl` [Compound 3], the 50% inhibitory concentration (IC50) in the experiment on MCF-7/adr cells, in the experiment on MCF-7 cells, in the experiment with A549 cells, in the experiment on KBv200 cells, in the experiment with KB cells and in the experiment on normal liver LO2 cells was more than 50 µM in each case.
Turning to `Cc1cccc(O)c1C(=O)O` [Compound 5], the IC50 in the experiment on MCF-7/adr cells, in the experiment on MCF-7 cells, in the experiment with A549 cells, in the experiment on KBv200 cells, with KB cells and with normal liver LO2 cells was more than 50 µM each time.
In the case of `C/C=C/C(=O)c1cc(O)c(O)cc1O` [Compound 6], the IC50 in the experiment on MCF-7/adr cells, in the experiment with MCF-7 cells, in the experiment on A549 cells, in the experiment on KBv200 cells, with KB cells and in the experiment with normal liver LO2 cells was more than 50 µM each time.
Regarding `O=c1c2c(O)ccc(O)c2oc2c3c(cc(O)c12)OC1OCCC31` (stereo not shown) [Compound 7], the IC50 in experiment [1] (setting [2]) is less than 50 µM; in the experiment on MCF-7/adr cells, 31.6 ± 1.83 µM; in the experiment on MCF-7 cells, 0.17 ± 0.01 µM; in the experiment with A549 cells, 16.5 ± 0.88 µM; in the experiment with KBv200 cells, 9.08 ± 0.65 µM; in the experiment on KB cells, 0.03 ± 0.001 µM. Further, the IC50 in the experiment with normal liver LO2 cells was 47.4 ± 2.04 µM. For the same compound, in experiment [1], the “IC50 values in MDR cells compared with parental sensitive cells” value is recorded as “much higher IC50 values”.
For `O=c1c2ccccc2oc2c3c(cc(O)c12)OC1OCCC31` (stereo not shown) [Compound 8], the IC50 in experiment [1] (setting [2]) is less than 50 µM; in the experiment with MCF-7/adr cells, 9.37 ± 0.42 µM; in the experiment on MCF-7 cells, 2.53 ± 0.14 µM; in the experiment with A549 cells, more than 50 µM; in the experiment on KBv200 cells, 17.2 ± 0.96 µM; in the experiment with KB cells, 0.71 ± 0.03 µM. This compound also registered a half-inhibitory concentration (IC50) in the experiment with normal liver LO2 cells of more than 50 µM.
On to `COc1c2c(cc3oc4cccc(O)c4c(=O)c13)C1C=COC1O2` (stereo not shown) [Compound 9], for which the IC50 was less than 50 µM in experiment [1] (setting [2]); 31.6 ± 1.36 µM with MCF-7/adr cells; 1.43 ± 0.09 µM in the experiment with MCF-7 cells; more than 50 µM in the experiment with A549 cells; 48 ± 3.41 µM in the experiment on KBv200 cells; 0.94 ± 0.01 µM in the experiment on KB cells. This compound also displayed an IC50 in the experiment with normal liver LO2 cells of more than 50 µM. In experiment [1], the “IC50 values in MDR cells compared with parental sensitive cells” value is given as “much higher IC50 values”.
On to `C=C/C=C/COc1c(-c2ccc3c(c2OC/C=C/C=C)C(=O)C2=C(O)CC(C)C(O)C2(C(=O)OC)O3)ccc2c1C(=O)C1=C(O)CC(C)C(O)C1(C(=O)OC)O2` (stereo not shown) [Compound 10], for which the half-maximal inhibitory concentration (IC50) with MCF-7/adr cells, with MCF-7 cells, with A549 cells, in the experiment on KBv200 cells, with KB cells and in the experiment with normal liver LO2 cells was more than 50 µM throughout.
As to `CCOC(=O)COc1cccc2c1C(=O)c1c(OCC(=O)OCC)cc(C)cc1C2=O` [Compound 12], the half-maximal inhibitory concentration (IC50) in the experiment with MCF-7/adr cells, in the experiment with MCF-7 cells, with A549 cells, in the experiment with KBv200 cells, in the experiment with KB cells and in the experiment on normal liver LO2 cells was more than 50 µM each time.
Regarding `Cc1cc(OCc2ccccc2)c2c(c1)C(=O)c1cccc(O)c1C2=O` [Compound 15], the IC50 with MCF-7/adr cells, with MCF-7 cells, in the experiment with A549 cells, in the experiment on KBv200 cells, in the experiment on KB cells and in the experiment with normal liver LO2 cells was more than 50 µM in each case.
As for `O=C1c2cccc(OCc3ccccc3)c2C(=O)c2c(OCc3ccccc3)cccc21` [Compound 16], the IC50 with MCF-7/adr cells, in the experiment on MCF-7 cells, in the experiment with A549 cells, in the experiment with KBv200 cells, with KB cells and in the experiment on normal liver LO2 cells was more than 50 µM in each case.
With `COc1cc(OC)c2c(c1)C(=O)c1cc3c(c(O)c1C2=O)C1CCOC1O3` (stereo not shown) [Compound 17], the IC50 with MCF-7/adr cells, with MCF-7 cells, in the experiment on A549 cells, with KBv200 cells, with KB cells and with normal liver LO2 cells was more than 50 µM throughout.
For the compound `Cc1ccc2c(c1)C(=O)c1ccc(-c3ccc4c(c3)C(=O)c3cc(C)cc(O)c3C4=O)c(O)c1C2=O` [Compound 19], the 50% inhibitory concentration (IC50) in the experiment on MCF-7/adr cells, with MCF-7 cells, in the experiment on A549 cells, in the experiment with KBv200 cells, with KB cells and with normal liver LO2 cells was more than 50 µM throughout.
With `COc1cc(O)c2c(c1O)C(O)C1CC(C)(O)C(O)C(O)C1C2=O` (stereo not shown) [Compound 20], the half-inhibitory concentration (IC50) in the experiment on MCF-7/adr cells, in the experiment on MCF-7 cells, in the experiment with A549 cells, in the experiment with KBv200 cells, with KB cells and in the experiment with normal liver LO2 cells was more than 50 µM throughout.
In the case of `COc1cc(O)c2c(c1O)C(O)C1CC(C)(O)C(O)CC1C2=O` (stereo not shown) [Compound 21], the 50% inhibitory concentration (IC50) in the experiment on MCF-7/adr cells, in the experiment with MCF-7 cells, with A549 cells, in the experiment on KBv200 cells, in the experiment on KB cells and in the experiment with normal liver LO2 cells was more than 50 µM in each case.
In the case of `COc1cc(O)c2c(c1O)C(O)C1CC3(C)OC3CC1C2=O` (stereo not shown) [Compound 22], the half-inhibitory concentration (IC50) with MCF-7/adr cells, in the experiment on MCF-7 cells, with A549 cells, with KBv200 cells, in the experiment with KB cells and in the experiment with normal liver LO2 cells was more than 50 µM each time.
For the compound `COc1cc(O)c2c(c1O)C(=O)C1CC(C)(O)C(O)CC1C2O` (stereo not shown) [Compound 23], the half-maximal inhibitory concentration (IC50) with MCF-7/adr cells, with MCF-7 cells, with A549 cells, in the experiment with KBv200 cells, with KB cells and in the experiment on normal liver LO2 cells was more than 50 µM in each case.
As for `COc1cc(O)c2c(c1O)C(=O)C1CC(C)(O)C(O)C(O)C1C2O` (stereo not shown) [Compound 24], the IC50 in the experiment on MCF-7/adr cells, in the experiment on MCF-7 cells, in the experiment on A549 cells, with KBv200 cells, in the experiment with KB cells and in the experiment on normal liver LO2 cells was more than 50 µM throughout.
For the compound `COc1cc(O)c2c(c1O)C(=O)C1CC3(C)OC3CC1C2O` (stereo not shown) [Compound 25], the IC50 with MCF-7/adr cells, in the experiment with MCF-7 cells, with A549 cells, with KBv200 cells, in the experiment on KB cells and with normal liver LO2 cells was more than 50 µM in each case.
For `CC1OC(O[C@@H]2C(=O)c3c(O)cccc3OC2c2ccc(O)cc2)C(O)C(O)C1O` (stereo partly shown) [Compound 79], the IC50 (in experiment [1] (setting [3]); in the experiment with MCF-7/adr cells; with MCF-7 cells; with A549 cells; with KBv200 cells; in the experiment on KB cells) was more than 50 µM each time. This compound displayed an IC50 in the experiment with normal liver LO2 cells of more than 50 µM.
Consider `CC1OC(O[C@H]2C(=O)c3c(O)cccc3OC2c2ccc(O)cc2)C(O)C(O)C1O` (stereo partly shown) [Compound 80], for which the 50% inhibitory concentration (IC50) (in experiment [1] (setting [3]); in the experiment with MCF-7/adr cells; in the experiment on MCF-7 cells; in the experiment on A549 cells; in the experiment with KBv200 cells; in the experiment on KB cells) was more than 50 µM throughout. This compound also came in with an IC50 in the experiment with normal liver LO2 cells of more than 50 µM.
For `CCCCC/C=C\CC(O)/C=C/C=C\C/C=C\CCCC(=O)OC` (stereo not shown) [Compound 82], the IC50 in the experiment with MCF-7/adr cells, in the experiment with MCF-7 cells, in the experiment with A549 cells, with KBv200 cells, in the experiment on KB cells and with normal liver LO2 cells was more than 50 µM in each case.
As to `CC(=O)/C=C/C=C/C=C/C(=O)CC(=O)O` [Compound 84], the IC50 with MCF-7/adr cells, in the experiment with MCF-7 cells, in the experiment on A549 cells, in the experiment with KBv200 cells, in the experiment with KB cells and in the experiment on normal liver LO2 cells was more than 50 µM each time.
Take `COC(=O)/C=C/C=C/C=C/C=C(C)/C=C/C=C(\C)C(=O)O` [Compound 85]: the IC50 with MCF-7/adr cells, in the experiment with MCF-7 cells, in the experiment on A549 cells, with KBv200 cells, in the experiment with KB cells and in the experiment on normal liver LO2 cells was more than 50 µM throughout.
